From patent US8518916B2, “Heterocyclic derivatives as M-GLU5 antagonists” (Recordati Ireland Limited, priority 2007, dated 2013)

What was measured:
mGlu5 receptor = molecular target: T1, mGlu5 receptor (Rattus norvegicus, UniProt P31424); assay: Radioligand binding assay ([3H]MPEP) at metabotropic glutamate receptor 5 in rat brain; conditions: rat forebrain membranes, 4 nM [3H]MPEP; read-out: affinity (Ki) for mGlu5 receptor
T1 construct: from tissue; host or cells: forebrain (cortex, striatum and hippocampus) of male Sprague Dawley rats
T1 sequence (P31424 21-1203): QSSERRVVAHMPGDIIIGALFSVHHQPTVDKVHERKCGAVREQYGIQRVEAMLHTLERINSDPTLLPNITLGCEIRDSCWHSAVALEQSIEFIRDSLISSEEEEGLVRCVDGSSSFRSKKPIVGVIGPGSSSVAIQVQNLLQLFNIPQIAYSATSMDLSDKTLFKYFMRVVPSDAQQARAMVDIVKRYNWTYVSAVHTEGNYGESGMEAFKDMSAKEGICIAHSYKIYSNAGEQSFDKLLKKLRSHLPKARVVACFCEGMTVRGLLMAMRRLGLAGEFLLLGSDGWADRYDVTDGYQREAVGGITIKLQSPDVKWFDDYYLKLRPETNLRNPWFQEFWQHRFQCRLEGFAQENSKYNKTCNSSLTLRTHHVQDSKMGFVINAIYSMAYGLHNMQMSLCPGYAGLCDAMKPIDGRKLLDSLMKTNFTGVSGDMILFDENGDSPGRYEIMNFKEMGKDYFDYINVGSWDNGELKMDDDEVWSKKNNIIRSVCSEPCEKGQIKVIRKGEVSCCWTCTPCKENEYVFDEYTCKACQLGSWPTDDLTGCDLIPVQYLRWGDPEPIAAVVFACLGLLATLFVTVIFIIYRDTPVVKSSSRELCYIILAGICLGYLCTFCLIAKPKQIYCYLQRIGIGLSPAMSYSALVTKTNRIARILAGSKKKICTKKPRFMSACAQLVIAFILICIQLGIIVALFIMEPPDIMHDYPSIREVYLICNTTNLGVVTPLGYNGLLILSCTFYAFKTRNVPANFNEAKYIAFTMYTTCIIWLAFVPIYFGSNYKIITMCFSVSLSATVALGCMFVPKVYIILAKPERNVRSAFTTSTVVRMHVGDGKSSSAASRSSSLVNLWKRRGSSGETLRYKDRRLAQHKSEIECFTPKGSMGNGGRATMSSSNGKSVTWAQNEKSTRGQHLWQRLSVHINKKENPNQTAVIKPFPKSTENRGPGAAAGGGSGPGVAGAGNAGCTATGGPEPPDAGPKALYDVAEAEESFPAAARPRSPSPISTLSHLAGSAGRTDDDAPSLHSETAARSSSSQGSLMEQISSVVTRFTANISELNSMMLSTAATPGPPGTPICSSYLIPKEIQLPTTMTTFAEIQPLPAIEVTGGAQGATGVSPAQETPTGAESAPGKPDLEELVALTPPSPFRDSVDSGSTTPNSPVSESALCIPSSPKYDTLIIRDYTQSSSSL
Method: Radioligand Binding Assay at metabotropic glutamate receptor 5 in rat brain.
a) Membrane preparation: male Sprague Dawley rats (200-300 g, Charles River, Italy) were killed by cervical dislocation and the forebrain (cortex, striatum and hippocampus) was homogenized (2×20 sec) in 50 vols of cold 50 mM Tris buffer pH 7.4, using a Politron homogenizer (Kinematica). Homogenates were centrifuged at 48000×g for 15 min, resuspended in 50 vols of the same buffer, incubated at 37° C. for 15 min and centrifuged and resuspended two more times. The final pellets were frozen and stored at −80° C. until use.
b) Binding assay: pellets from rat forebrain were resuspended in 100 vols of 20 mM HEPES, 2 mM MgCl2, 2 mM CaCl2, pH 7.4. The membranes were incubated in a final volume of 1 ml for 60 min at 25° C. with 4 nM [^3H]MPEP in the absence or presence of competing drugs. Non-specific binding was determined in the presence of 10 μM MPEP (Spooren W. et al., Trends Pharmacol Sci. 22, 331-337, 2001). The incubation was stopped by the addition of cold Tris buffer pH 7.4 and rapid filtration through 0.5% polyethyleneimine pretreated Filtermat 1204-401 (Wallac) filters. The filters were then washed with cold buffer and the radioactivity retained on the filters was counted by liquid scintillation spectrometry. […]

conscious rats = assay: Cystometry in conscious rats (bladder volume capacity); format: in vivo, rat; conditions: for effect on bladder volume capacity: 1-3 h after treatment; for "In vivo" cystometry MED (Minimal Effective Dose that induces statistically significant increase of bladder volume capacity): oral
Method: Male Sprague-Dawley rats [Crl: CD® (SD) IGS BR] of 300-400 g b.w. supplied by Charles River Italia were used. The animals were housed with free access to food and water and maintained on a forced 12-hour-light/12-hour-dark cycle at 22-24° C. of temperature, except during the experiment. To quantify urodynamic parameters in conscious rats, cystometrographic studies were performed according to the procedure previously reported (Guarneri et al., Pharmacol. Res. 24: 175, 1991).
Briefly, the rats were anaesthetised by intraperitoneal administration of 3 ml/kg of Equithensin solution (pentobarbital 30 mg/kg and chloral hydrate 125 mg/kg) and placed in a supine position. An approximately 10 mm long midline incision was made in the shaved and cleaned abdominal wall. The urinary bladder was gently freed from adhering tissues, emptied and then cannulated via an incision in the bladder body, using a polyethylene cannula (0.58 mm internal diameter, 0.96 mm external diameter) which was permanently sutured with silk thread. The cannula was exteriorised through a subcutaneous tunnel in the retroscapular area, where it was connected to a plastic adapter in order to avoid the risk of removal by the animal. For drug testing, the rats were utilised one day after implantation.
On the day of the experiment, the rats were placed in modified Bollman cages, i.e., restraining cages that were large enough to permit the rats to adopt a normal crouched posture, but narrow enough to prevent turning around. After a stabilisation period of about 20 minutes, the free tip of the bladder cannula was connected through a T-shaped tube to a pressure transducer (Statham P23XL) and to a peristaltic pump (Gilson Minipuls 2) for continuous infusion of a warm (37° C.) saline solution into the urinary bladder, at a constant rate of 0.1 ml/minute. The intraluminal-pressure signal during infusion of saline into the bladder (cystometrogram) was continuously recorded on a polygraph (Rectigraph-8K San-ei with BM614/2 amplifier from Biomedica Mangoni) or stored on PC by data acquisition system (PowerLab, Chart 4 software, AD Instruments). From the cystometrogram, bladder volume capacity (BVC) was evaluated. BVC (in ml) is defined as the volume of saline infused into the bladder necessary to induce detrusor contraction followed by micturition. Basal BVC value was evaluated as the mean of the values observed in the cystometrograms recorded in an initial period of 30-60 minutes. At this point in the assay, the infusion was interrupted and the test compounds were administered orally by a stomach tube. The bladder infusion restarted and changes in BVC were evaluated from the mean values obtained in the cystometrograms observed during 1, 2, and 3 hours after treatment. The compounds were administered in a volume of 2 ml/kg. Groups of control animals received the same amount of vehicle corresponding to a solution 0.5% methocel in water.
Under the given test conditions, measurement of BVC is equivalent to measurement of interval time between micturitions.
Each experimental group was composed of 4-11 animals. All data were expressed as mean±standard error. The percent change of BVC versus the basal value, as well as Δ value (difference in ml) of BVC (BVC at time “x” minus basal value), were also evaluated for each rat/time. In the figures, data are reported as % change versus the basal value.
Statistical analysis on BVC values, as well as on Δ values, was performed by S.A.S./STAT software, version 6.12. The difference between vehicle and active treatment effect was evaluated on Δ values of BVC, whereas the difference between the values at different times versus the basal values was evaluated on original BVC data.

SMILES | "In vivo" cystometry MED (Minimal Effective Dose that induces statistically significant increase of bladder volume capacity) (conscious rats) [mg/kg os] | further results
Cc1cccc(C#CC=C2CCN(c3ncccc3[N+](=O)[O-])CC2)n1 [Example 1, 2-{4-[3-(6-Methylpyridin-2-yl)prop-2-ynylidene]piperidin-1-yl}-3-nitropyridine] | 3 | Ki (mGlu5 receptor): 0.37 nM; effect on bladder volume capacity (conscious rats; 1 mg/kg orally): proved effective in increasing the bladder volume capacity; effect on bladder volume capacity (conscious rats; 3 mg/kg orally): proved effective in increasing the bladder volume capacity
Cc1cccc(C#CC=C2CCN(c3nc(C)ccc3[N+](=O)[O-])CC2)n1 [Example 5, 6-Methyl-2-[4-[3-(6-methylpyridin-2-yl)prop-2-ynylidene]piperidin-1-yl]-3-nitropyridine] | 0.1 | –
COc1ccc([N+](=O)[O-])c(N2CCC(=CC#Cc3cccc(C)n3)CC2)n1 [Example 6, 6-Methoxy-2-{4-[3-(6-methylpyridin-2-yl)prop-2-ynylidene]piperidin-1-yl}-3-nitropyridine] | 1 | –
O=[N+]([O-])c1cccnc1N1CCC(=CC#Cc2ccccn2)CC1 [Example 9, 3-Nitro-2-[4-(3-pyridin-2-ylprop-2-ynylidene)piperidin-1-yl]pyridine] | 1 | –
O=[N+]([O-])c1cccnc1N1CCC(=CC#Cc2ccccc2)CC1 [Example 10, 3-Nitro-2-[4-(3-phenylprop-2-ynylidene)piperidin-1-yl]pyridine] | 1 | effect on bladder volume capacity (conscious rats; 0.3 mg/kg orally): slightly increased the bladder volume capacity (not statistical significant); effect on bladder volume capacity (conscious rats; 1 mg/kg orally): proved effective in increasing bladder volume capacity
O=[N+]([O-])c1cccnc1N1CCC(=CC#Cc2ccc(F)nc2)CC1 [Example 35, 2-{4-[3-(6-Fluoropyridin-3-yl)prop-2-ynylidene]piperidin-1-yl}-3-nitropyridine] | 3 | –
Cc1cccc(C#CC=C2CCN(c3ccccc3C#N)CC2)n1 [Example 43, 2-{4-[3-(6-Methylpyridin-2-yl)prop-2-ynylidene]piperidin-1-yl}benzonitrile] | 3 | –
Cc1cccc(C#CC=C2CCN(c3ccc(F)cc3[N+](=O)[O-])CC2)n1 [Example 55, 2-{3-[1-(4-Fluoro-2-nitrophenyl)piperidin-4-ylidene]prop-1-ynyl}-6-methylpyridine] | 0.3 | –
Cc1cccc(C#CC=C2CCN(c3ccc(C#N)cc3[N+](=O)[O-])CC2)n1 [Example 56, 4-{4-[3-(6-Methylpyridin-2-yl)prop-2-ynylidene]piperidin-1-yl}-3-nitrobenzonitrile] | 1 | –
O=[N+]([O-])c1cccnc1N1CCC(=C(F)C#Cc2ccccc2)CC1 [Example 67, 2-[4-(1-Fluoro-3-phenylprop-2-yn-1-ylidene)piperidin-1-yl]-3-nitropyridine] | 1 | –
O=[N+]([O-])c1cccnc1N1CCC(=CC#Cc2cc(F)cc(F)c2)CC1 [Example 202, 2-{4-[3-(3,5-Difluorophenyl)prop-2-yn-1-ylidene]piperidin-1-yl}-3-nitropyridine] | 3 | –
O=[N+]([O-])c1cccnc1N1CCC(=CC#Cc2cccc(Br)c2)CC1 [Example 208, 2-{4-[3-(3-Bromophenyl)prop-2-yn-1-ylidene]piperidin-1-yl}-3-nitropyridine] | 0.3 | –
Cc1nc(C#Cc2cccnc2)cs1 [MTEP, reference compound] | 3 | effect on bladder volume capacity (conscious rats; 1 mg/kg orally): only a slight increase of bladder volume capacity; effect on bladder volume capacity (conscious rats; 3 mg/kg orally): sustained increase
